Assay results from US20230099344A1, “COMPOUNDS AND METHODS FOR THE TARGETED DEGRADATION OF IRAK-4” (Arvinas Operations, Inc., priority 2021, published 2023).
pIC50: −log10 of the molar value.

Legend:
Type in all cases: cell-based
[1] = system: IL8; test: IL-1β stimulated IL8 inhibition assay in PBMC; details: human PBMCs, IL-1β stimulation, compound overnight, IL8 by MSD after 24 hrs; for pIC50: read-out: IL1β stim IL8 inhibition IC50; for Emax: read-out: IL1β stim IL8 inhibition Ymax
Method: (§1) IL-1β, LPS, or R848 Stimulated IL6 Inhibition and IL-1β Stimulated IL8 Inhibition Assay
(§2) Human PBMC cells were seeded at 2.0×10^6 cells/mL, treated with compound overnight, and dosed with the EC50 concentration of each stimulant (either IL-1B. LPS, or R848) was determined for each donor. After 24 hrs, media was collected and analyzed by MSD for IL6 and/or IL8 levels.

[2] = molecular target: T1, IRAK-4 (Homo sapiens, UniProt Q9NWZ3); test: IRAK-4 ELISA, OCI-Ly10 degradation; design: endogenous in cells; details: treated overnight; for Dmax: OCI-Ly10, OCI-Ly10 cells; for DC50: OCI-Ly10 cells
T1 sequence (Q9NWZ3 1-460): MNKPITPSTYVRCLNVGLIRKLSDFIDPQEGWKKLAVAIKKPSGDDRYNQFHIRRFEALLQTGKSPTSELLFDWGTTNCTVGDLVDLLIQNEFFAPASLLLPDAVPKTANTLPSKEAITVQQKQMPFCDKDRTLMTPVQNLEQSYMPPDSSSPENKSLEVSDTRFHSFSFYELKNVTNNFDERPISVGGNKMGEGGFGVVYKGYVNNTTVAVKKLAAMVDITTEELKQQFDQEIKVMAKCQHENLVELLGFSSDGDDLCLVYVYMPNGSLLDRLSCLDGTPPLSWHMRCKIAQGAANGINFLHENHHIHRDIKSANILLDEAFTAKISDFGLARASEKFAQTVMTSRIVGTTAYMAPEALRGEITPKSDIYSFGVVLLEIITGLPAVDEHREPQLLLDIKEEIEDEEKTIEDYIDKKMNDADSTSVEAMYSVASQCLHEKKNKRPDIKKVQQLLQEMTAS
Summary of the method: (§3)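 IRAK-4 levels measured by matched-antibody-pair ELISA on lysates after overnight compound exposure. Cells seeded same day: PBMC at 2×10^6/ml, OCI-Ly10 at 1×10^6/ml.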

[3] = molecular target: T1, IRAK-4; test: IRAK-4 ELISA, PBMC degradation; design: endogenous in cells; host or cells: PBMC; details: treated overnight
Summary of the method: as §3

[4] = system: IL6; test: IL-1β stimulated IL6 inhibition assay in PBMC; details: PBMC, human PBMCs, IL-1β stimulation, compound overnight, IL6 by MSD after 24 hrs; for pIC50: Homo sapiens, 24 h, read-out: IL1β stim IL6 inhibition IC50; for Emax: read-out: IL1β stim IL6 inhibition Ymax
Method: as §1, §2

pIC50 [1] | Dmax [2] | DC50 [2] | DC50 [3] | Dmax [3] | PBMC DC90 [3] | pIC50 [4] | Compound | Emax [1] | Emax [4]
≤ 7.00 | ≥ 90% | < 10 nM | 1 to 5 nM | ≥ 90% | A (A represents a DC90 value <10.0 nM) | > 8.00 | O=C1CCC(N2C(=O)c3ccc(N4CCC(CN5CCC(N6Cc7cc(NC(=O)c8cnn9cccnc89)c(N8CCC(N9CCC9)CC8)cc7C6=O)CC5)CC4)cc3C2=O)C(=O)N1 (stereo not drawn) [Example 38] | ≥ 90% | ≥ 90%
7.00 to 7.30 | ≥ 90% | < 10 nM | < 1 nM | ≥ 90% | A (A represents a DC90 value <10.0 nM) | 7.30 to 8.00 | CC(C)Oc1cc2c(cc1NC(=O)c1cnn3cccnc13)CN(C1CCN(C3CCN(c4ccc5c(c4)C(=O)N(C4CCC(=O)NC4=O)C5=O)CC3)CC1)C2=O (stereo not drawn) [Example 64] | < 70% | 80 to 90%
7.30 to 8.00 | ≥ 90% | < 10 nM | 1 to 5 nM | ≥ 90% | A (A represents a DC90 value <10.0 nM) | 7.30 to 8.00 | CC(C)Oc1cc2c(cc1NC(=O)c1cnn3cccnc13)CN([C@H]1CC[C@@H](N3CC4(CN(c5ccc6c(c5)C(=O)N(C5CCC(=O)NC5=O)C6=O)C4)C3)CC1)C2=O (stereo partly drawn) [Example 69] | 80 to 90% | ≥ 90%
7.00 to 7.30 | ≥ 90% | < 10 nM | 5 to 10 nM | 80 to 90% | D (D represents a DC90 value ≥50 nM) | 7.30 to 8.00 | O=C1CCC(N2C(=O)c3ccc(N4CC(N5CCC(N6Cc7cc(NC(=O)c8cnn9cccnc89)c(N8CCC(N9CCC9)CC8)cc7C6=O)CC5)C4)cc3C2=O)C(=O)N1 (stereo not drawn) [Example 99] | 80 to 90% | ≥ 90%
7.30 to 8.00 | 80 to 90% | < 10 nM | < 1 nM | ≥ 90% | A (A represents a DC90 value <10.0 nM) | > 8.00 | O=C1CCC(N2Cc3cc(OCCOCCN4CCC(n5cc6cc(NC(=O)c7cnn8cccnc78)c(OCC7CC7)cc6n5)CC4)ccc3C2=O)C(=O)N1 (stereo not drawn) [Example 119] | 80 to 90% | ≥ 90%
7.30 to 8.00 | ≥ 90% | < 10 nM | < 1 nM | ≥ 90% | A (A represents a DC90 value <10.0 nM) | > 8.00 | O=C1CCC(N2Cc3cc(N4CC(CN5CCC(n6cc7cc(NC(=O)c8cnn9cccnc89)c(OCC8CC8)cc7n6)CC5)C4)ccc3C2=O)C(=O)N1 (stereo not drawn) [Example 134] | 70 to 80% | ≥ 90%
7.00 to 7.30 | 70 to 80% | < 10 nM | < 1 nM | ≥ 90% | A (A represents a DC90 value <10.0 nM) | > 8.00 | O=C1CCC(N2Cc3cc(N4CC(CN5CCC(n6cc7cc(NC(=O)c8cnn9cccnc89)c(C8CC8)cc7n6)CC5)C4)ccc3C2=O)C(=O)N1 (stereo not drawn) [Example 136] | 70 to 80% | ≥ 90%
7.30 to 8.00 | 70 to 80% | < 10 nM | < 1 nM | 80 to 90% | A (A represents a DC90 value <10.0 nM) | > 8.00 | COc1cc2nn(C3CCN(CC4CN(c5ccc6c(c5)CN(C5CCC(=O)NC5=O)C6=O)C4)CC3)cc2cc1NC(=O)c1cnn2cccnc12 (stereo not drawn) [Example 142] | < 70% | ≥ 90%
7.30 to 8.00 | ≥ 90% | < 10 nM | < 1 nM | ≥ 90% | A (A represents a DC90 value <10.0 nM) | 7.30 to 8.00 | O=C1CCC(N2C(=O)c3ccc(N4CC(CN5CCC([C@H](F)Cn6cc7cc(NC(=O)c8cnn9cccnc89)c(OCC8CC8)cc7n6)CC5)C4)cc3C2=O)C(=O)N1 (stereo partly drawn) [Example 173] | < 70% | ≥ 90%
> 8.00 | ≥ 90% | < 10 nM | < 1 nM | ≥ 90% | A (A represents a DC90 value <10.0 nM) | > 8.00 | O=C1CCC(N2C(=O)c3ccc(N4CCC(CN5CCC([C@H](F)Cn6cc7cc(NC(=O)c8cnn9cccnc89)c(OCC8CC8)cc7n6)CC5)CC4)cc3C2=O)C(=O)N1 (stereo partly drawn) [Example 182] | < 70% | 80 to 90%

Compound | pIC50 [1] | Dmax [2] | DC50 [2] | DC50 [3] | Dmax [3] | PBMC DC90 [3] | pIC50 [4] | Emax [1] | Emax [4]
CC(C)Oc1cc2c(cc1NC(=O)c1cnn3cccnc13)CN(C1CCN(C3CN(c4ccc5c(c4)C(=O)N(C4CCC(=O)NC4=O)C5=O)C3)CC1)C2=O (stereo not drawn) [Example 59] | 7.00 to 7.30 | ≥ 90% | < 10 nM | 1 to 5 nM | ≥ 90% | B (B represents a DC90 value ≥10.0 nM and <25.0 nM) | 7.30 to 8.00 | 70 to 80% | ≥ 90%
O=C1CCC(N2C(=O)c3ccc(N4CC(CN5CCC(N6Cc7cc(NC(=O)c8cnn9cccnc89)c(OCC8CC8)cc7C6=O)CC5)C4)cc3C2=O)C(=O)N1 (stereo not drawn) [Example 86] | 7.30 to 8.00 | ≥ 90% | < 10 nM | 1 to 5 nM | ≥ 90% | B (B represents a DC90 value ≥10.0 nM and <25.0 nM) | > 8.00 | 70 to 80% | ≥ 90%
O=C1CCC(N2C(=O)c3ccc(N4CC(CN5CCC(N6Cc7cc(NC(=O)c8cnn9cccnc89)c(N8CCOCC8)cc7C6=O)CC5)C4)cc3C2=O)C(=O)N1 (stereo not drawn) [Example 96] | ≤ 7.00 | ≥ 90% | 10 to 50 nM | 1 to 5 nM | ≥ 90% | B (B represents a DC90 value ≥10.0 nM and <25.0 nM) | 7.00 to 7.30 | < 70% | ≥ 90%
O=C1CCC(N2Cc3cc(OCCN4CCC(n5cc6cc(NC(=O)c7cnn8cccnc78)c(OCC7CC7)cc6n5)CC4)ccc3C2=O)C(=O)N1 (stereo not drawn) [Example 122] | 7.00 to 7.30 | < 70% | < 10 nM | 1 to 5 nM | < 70% | B (B represents a DC90 value ≥10.0 nM and <25.0 nM) | 7.30 to 8.00 | 80 to 90% | ≥ 90%
O=C1CCC(N2Cc3cc(CCN4CCC(n5cc6cc(NC(=O)c7cnn8cccnc78)c(OCC7CC7)cc6n5)CC4)ccc3C2=O)C(=O)N1 (stereo not drawn) [Example 126] | > 8.00 | ≥ 90% | < 10 nM | 1 to 5 nM | < 70% | B (B represents a DC90 value ≥10.0 nM and <25.0 nM) | > 8.00 | < 70% | ≥ 90%
COc1cc2nn(C3CCN(CC4CCN(c5ccc6c(c5)CN(C5CCC(=O)NC5=O)C6=O)CC4)CC3)cc2cc1NC(=O)c1cnn2cccnc12 (stereo not drawn) [Example 141] | 7.30 to 8.00 | 80 to 90% | < 10 nM | 1 to 5 nM | 80 to 90% | B (B represents a DC90 value ≥10.0 nM and <25.0 nM) | > 8.00 | 80 to 90% | ≥ 90%
COc1cc2nn(C3CCN(CCc4ccc5c(c4)CN(C4CCC(=O)NC4=O)C5=O)CC3)cc2cc1NC(=O)c1cnn2cccnc12 (stereo not drawn) [Example 143] | > 8.00 | ≥ 90% | < 10 nM | 1 to 5 nM | ≥ 90% | C (C represents a DC90 value ≥25.0 nM and <50 nM) | > 8.00 | 70 to 80% | ≥ 90%
